Source: patent US7205307B2, “Pyrimidines as novel openers of potassium ion channels” (Icagen, Inc., priority 2002, dated 2007)

What follows are compounds tested on voltage gated K+ channels (assay: test assay chosen for cells expressing voltage gated K+ channels (opening of voltage-gated potassium channels)). Conditions: relative potency.
Assay type: cell-based
Procedure: Utilizing screening assays such as described above, compounds of the invention were tested for their ability to open voltage-gated potassium channels. The results of these assays are set forth in Table 1 in which the data are presented in terms of relative potency of the compounds tested to one another.
This example illustrates screening protocols for evaluating putative potassium channel agonists for the ability to open voltage-gated potassium channels.
NG108-15 cells, a mouse neuroblastoma, rat glioma hybrid cell line, functionally express M-currents (Robbins et al., J. Physiol. 451: 159–85 (1992). NG108-15 M-currents are likely comprised, at least in part, of KCNQ2, KCNQ3 and KCNQ5, since these genes are reportedly robustly expressed in differentiated NG108-15 cells (Selyanko et al., J. Neurosci. 19(18): 7742–56 (1999); Schroeder et al., J. Biol. Chem. 275(31): 24089–95 (2000)) and KCNQ3 dominant- negative constructs reduce M-current density in these cells (Selyanko et al., J. Neurosci. 22(5): RC212 (2002).
NG108–15 are maintained in DMEM (high glucose) supplemented with 10% fetal bovine serum, 0.05 mM pyridoxine, 0.1 mM hypoxanthine, 400 nM aminopterin, […] thymidine, 50 μgml^−1 gentamycin and 10 mM HEPES, in an incubator at 37° C. with a humidified atmosphere of 5% CO2. Cells are plated in 96 well plates and are differentiated by addition of 10 μM PGE1 and 50 μM isomethylbutylxanthine to the growth media prior to study.
Differentiated NG108–15 cells are loaded with voltage-sensitive dye by incubation in Earls Balanced Salt Solution (EBSS) containing […] DiBAC for 1 h. Following loading, drug solution containing […] DiBAC is added to each well. Changes in fluorescence are measured every 30 s for 25 min. The maximum change in fluorescence is measured and can be expressed as a percentage of the maximum response obtained in the presence of a positive control agent.
Alternatively, cells expressing voltage-gated K^+ channels, such as KCNQ2-like channels can be loaded with ^86Rb^+ by culture in media containing ^86RbCl. Following loading, culture media is removed and the cells are washed in EBSS to remove residual traces of ^86Rb^+. Cells are preincubated with drug (0.01–30 μM in EBSS) and then ^86Rb^+ efflux is stimulated by exposing cells to EBSS solution supplemented with a sub-maximal concentration of KCl (generally 7–20 mM) in the continued presence of drug. After a suitable efflux period, the EBSS/KCl solution is removed from the cells and the ^86Rb^+ content can be determined by Cherenkov counting (Wallac Trilux). Cells are then lysed with a SDS solution and the ^86Rb^+ content of the lysate can be determined. Percent ^86Rb^+ efflux is calculated according to: (^86Rb^+ content in EBSS/(^86Rb^+ content in EBSS+^86Rb^+ content of the lysate))*100
Efflux is normalized to the maximal ^86Rb^+ efflux (i.e., that which can be induced by a high concentration of KCl, generally 30–135 mM).

Row | Compound | EC50
1 | O=C(Nc1cnc(Cl)nc1)c1cccc(C(F)(F)F)c1 [Compound 3, N-(2-chloro-pyrimidin-5-yl)-3-trifluoromethyl-benzamide] | 1 to 10 µM
2 | O=C(Nc1cnc(Cl)nc1)c1ccc(F)c(F)c1 [Compound 4, N-(2-Chloro-pyrimidin-5-yl)-3,4-difluoro-benzamide] | 0.5 to 1 µM
3 | O=C(Nc1cnc(Cl)nc1)c1cccc(Cl)c1 [Compound 5, 3-Chloro-N-(2-chloro-pyrimidin-5-yl)-benzamide] | 1 to 10 µM
4 | Cc1ncc(NC(=O)c2ccc(F)c(F)c2)cn1 [Compound 8, 3,4-difluoro-N-(2-methyl-pyrimidin-5-yl)-benzamide] | 1 to 10 µM
5 | O=C(Nc1cnc(Cl)nc1)c1cccc(F)c1 [Compound 9, N-(2-chloro-pyrimidin-5-yl)-3-fluoro-benzamide] | 1 to 10 µM
6 | O=C(Nc1cnc(Cl)nc1)c1ccc(Cl)s1 [Compound 20, 5-Chloro-thiophene-2-carboxylic acid (2-chloro-pyrimidin-5-yl)-amide] | 0.5 to 1 µM
7 | O=C(Nc1cnc(Cl)nc1)c1ccc(Cl)c(F)c1 [Compound 44, 4-Chloro-N-(2-chloro-pyrimidin-5-yl)-3-fluoro-benzamide] | < 0.5 µM
8 | Cc1ccc(C(=O)Nc2cnc(Cl)nc2)cc1F [Compound 90, N-(2-Chloro-pyrimidin-5-yl)-3-fluoro-4-methyl-benzamide] | 0.5 to 1 µM
9 | CC(C)S(=O)(=O)c1ccc(C(=O)Nc2cnc(Cl)nc2)cc1F [Compound 91, N-(5-amino-2-chloro-pyrimidine)-3-fluoro-4-(propane-2-sulfonyl)-benzamide] | 1 to 10 µM
